Assays:
[1] = tested on: U937 cells; assay: MTT anti-proliferation assay, U937; format: cell-based; settings: Homo sapiens, U-937, 48 h, read-out: IC50 tumor cell growth inhibition U937
[2] = tested on: U937 cell line; assay: Western blot of acetylated histone H3, H4, p21 and acetylated tubulin in U937; format: cell-based, Human; settings: U937, 1 µM; for cell permeability and intracellular HDAC inhibition: 6h and 24h, western blot; for acetylated tubulin level, 24h: after 24h
[3] = tested on: HL60 cells; assay: MTT anti-proliferation assay, HL60; format: cell-based; settings: Homo sapiens, HL-60, 48 h, read-out: IC50 tumor cell growth inhibition HL60
[4] = tested on: K562 cells; assay: MTT anti-proliferation assay, K562; format: cell-based; settings: Homo sapiens, K562, 48 h, read-out: IC50 tumor cell growth inhibition K562
[5] = tested on: PC3 cells; assay: MTT anti-proliferation assay, PC3; format: cell-based; settings: Homo sapiens, PC-3, 48 h, read-out: IC50 tumor cell growth inhibition PC3
[6] = tested on: U937 cell line; assay: Western blot of c-Raf, p-Erk, Erk, p-Akt, Akt in U937; format: cell-based, Human; settings: U937, 1 µM, 24h
[7] = tested on: MCF7 cells; assay: MTT anti-proliferation assay, MCF7; format: cell-based; settings: Homo sapiens, MCF7, 48 h, read-out: IC50 tumor cell growth inhibition MCF7
[8] = Water solubility; format: physicochemical; settings: compared among the derived molecules
[9] = tested on: U937 xenograft; assay: In vivo antitumor assay against U937 xenograft; design: species or system athymic nude mice; settings: 100 mg/kg/d intragastric, 16 days; for mean weight of tumors: negative control 2.66 g
[10] = Body weight and organ toxicity in the U937 xenograft study; format: in vivo; settings: 100 mg/kg/d intragastric, measured every two days

| Compound | IC50 [1] [nM] | IC50 [3] [nM] | IC50 [4] [nM] | IC50 [5] [nM] | IC50 [7] [nM] | cell permeability and intracellular HDAC inhibition [2] | acetylated tubulin level, 24h [2] | p-Akt level [6] | water solubility [8] | inhibitory ratio (tumor weight) [9] [%] | mean weight of tumors [9] [g] | mice body weight loss [10] |
| --- | --- | --- | --- | --- | --- | --- | --- | --- | --- | --- | --- | --- |
| O=C(NO)c1ccc(NC(=O)[C@@H](NC(=O)c2ccc(F)cc2)c2ccccc2)cc1 [Compound D4, (S)-4-fluoro-N-(2-((4-(hydroxycarbamoyl)phenyl)amino)-2-oxo-1-phenylethyl)benzamide] | 1640 ± 80 | 4550 ± 210 | 1590 ± 60 | 5880 ± 360 | 2040 ± 170 |  |  |  |  |  |  |  |
| O=C(NO)c1ccc(NC(=O)[C@@H](NS(=O)(=O)c2cccc3ccccc23)c2ccccc2)cc1 [Compound D5, (S)-N-hydroxy-4-(2-(naphthalene-1-sulfonamido)-2-phenylacetamido)benzamide] | 1630 ± 90 | 2880 ± 160 | 930 ± 20 | 10100 ± 570 | 8660 ± 730 | cell permeable and can inhibit intracellular and even nuclear HDACs | still significant |  |  |  |  |  |
| COc1ccccc1C(=O)N[C@H](C(=O)Nc1ccc(C(=O)NO)cc1)c1ccccc1 [Compound D11, (S)-N-(2-((4-(hydroxycarbamoyl)phenyl)amino)-2-oxo-1-phenylethyl)-2-methoxybenzamide] | 1710 ± 30 | 780 ± 20 | 3160 ± 110 | 20500 ± 1730 | 8230 ± 320 |  |  |  |  |  |  |  |
| O=C(NO)c1ccc(NC(=O)[C@@H](NC(=O)c2cccc(Br)c2)c2ccccc2)cc1 [Compound D13, (S)-3-bromo-N-(2-((4-(hydroxycarbamoyl)phenyl)amino)-2-oxo-1-phenylethyl)benzamide] | 1390 ± 30 | 1530 ± 40 | 1580 ± 60 | 31600 ± 2330 | 9710 ± 440 | cell permeable and can inhibit intracellular and even nuclear HDACs | still significant |  |  |  |  |  |
| CN(C)c1cccc2c(S(=O)(=O)N[C@H](C(=O)Nc3ccc(C(=O)NO)cc3)c3ccccc3)cccc12 [Compound D17, (S)-4-(2-(5-(dimethylamino)naphthalene-1-sulfonamido)-2-phenylacetamido)-N-hydroxybenzamide] | 1240 ± 20 | 3660 ± 130 | 700 ± 10 | 3310 ± 160 | 5340 ± 220 | cell permeable and can inhibit intracellular and even nuclear HDACs | reduced | significantly decreased | best water solubility | 53.57 | 1.24 | No evidence of mice body weight (measured every two days) loss |
| COc1ccccc1NC(=O)N[C@H](C(=O)Nc1ccc(C(=O)NO)cc1)c1ccccc1 [Compound D18, (S)-N-hydroxy-4-(2-(3-(2-methoxyphenyl)ureido)-2-phenylacetamido)benzamide] | 1310 ± 70 | 3830 ± 290 | 1550 ± 50 | 1510 ± 50 | 5140 ± 430 | cell permeable and can inhibit intracellular and even nuclear HDACs | reduced |  |  |  |  |  |
| O=C(CCCCCCC(=O)Nc1ccccc1)NO [SAHA, Suberoyl anilide hydroxamic acid, reference compound] |  |  | 1860 ± 70 |  |  |  |  |  |  |  | 2.00 |  |

Continued, in another order:

| IC50 [1] [nM] | IC50 [3] [nM] | IC50 [4] [nM] | IC50 [5] [nM] | IC50 [7] [nM] | Compound | cell permeability and intracellular HDAC inhibition [2] | acetylated tubulin level, 24h [2] | p-Akt level [6] | water solubility [8] | inhibitory ratio (tumor weight) [9] [%] | mean weight of tumors [9] [g] | mice body weight loss [10] |
| --- | --- | --- | --- | --- | --- | --- | --- | --- | --- | --- | --- | --- |
| 1320 ± 70 | 3150 ± 130 | 1190 ± 40 | 3770 ± 270 | 2920 ± 150 | O=C(NO)c1ccc(NC(=O)[C@@H](NC(=O)c2ccc3ccccc3c2)c2ccccc2)cc1 [Compound D3, (S)-N-(2-((4-(hydroxycarbamoyl)phenyl)amino)-2-oxo-1-phenylethyl)-2-naphthamide] | cell permeable and can inhibit intracellular and even nuclear HDACs | still significant | significantly decreased |  |  |  |  |
| 1770 ± 60 | 2020 ± 150 | 1470 ± 70 | 5670 ± 350 | 10800 ± 930 | O=C(NO)c1ccc(NC(=O)[C@@H](NC(=O)c2ccccc2)c2ccccc2)cc1 [Compound D7, (S)-4-(2-benzamido-2-phenylacetamido)-N-hydroxybenzamide] |  |  |  |  |  |  |  |
| 1550 ± 40 | 1800 ± 90 | 1930 ± 120 | 3000 ± 150 | 6280 ± 330 | COc1ccc(C(=O)N[C@H](C(=O)Nc2ccc(C(=O)NO)cc2)c2ccccc2)cc1 [Compound D12, (S)-N-hydroxy-4-(2-(4-methoxybenzamido)-2-phenylacetamido)benzamide] |  |  |  |  |  |  |  |

Reference: paper PMC3947464 (ChemMedChem, 2013)
